Assay results taken from patent publication US5607919A, “Anti-microbial proteins” (Sandoz Ltd., priority 1993, dated 1997).

B1: WIN N: chitin-binding WIN protein purified from barley grain or stressed barley leaf; residues 22-146 in SEQ ID No. 11 (protein)
chain: QQANNVRATYHYYRPAQNNWDLGAPAVSAYCATWDASKPLSWRSKYGWTAFCGPAGPRGQAACGKCLRVTNPATGAQITARIVDQCANGGLDLDWDTVFTKIDTNGIGYQQGHLNVNYQFVDCRD

Assays:
[1] = system: Colletotrichum graminicola; experiment: Anti-fungal activity against corn pathogens, microtiter spore assay; assay type: cell-based; details: 120 h; ni = did not inhibit fungal growth
Diplodia maydis = experiment: as above; assay type: cell-based; details: 120 h; ni = did not inhibit fungal growth
Bipolaris maydis = experiment: as above; assay type: cell-based; details: 120 h; ni = did not inhibit fungal growth
Procedure: (§1) The AX proteins according to the present invention are assessed for their anti-fungal activity against a number of corn pathogens. Concerning the results depicted in Tables 1 and 2, the assay of the AX proteins in respect of the corn pathogens is performed as follows. Five μl of a solution containing the proteins at the indicated concentrations are aseptically transferred into a well of a sterile, round-bottomed microtiter plate. All treatments are replicated once. Un-inoculated and inoculated culture media minus test protein solution are routinely included as controls. Spores (100-150) are aseptically added to each sample in a 5.0 μl aliquot of double strength Potato Dextrose Broth (PDB).
(§2) Following gentle agitation to mix the protein sample and spore suspension, a double layer of parafilm is wrapped around the lid/plate junction in order to minimize desiccation and the thus wrapped microtiter plate is incubated at 19°±0.2° C. with a 16 h photoperiod.
(§3) Individual wells are scored for spore germination and mycelial growth every 24 h. At the end of 120 h the level of anti-fungal activity is determined.

[2] = system: Exserohilum turcicum race 1; experiment: as above; assay type: cell-based; details: 120 h; ni = did not inhibit fungal growth
Procedure: as §1, §2, §3

[3] = system: Exserohilum turcicum race 2; assay type: cell-based; details: 120 h; ni = did not inhibit fungal growth
Fusarium graminearum = assay type: cell-based; details: 120 h; ni = did not inhibit fungal growth
Fusarium moniliforme = experiment: Anti-fungal activity against corn pathogens, microtiter spore assay; assay type: cell-based; details: 120 h; ni = did not inhibit fungal growth
Gibberella zeae = assay type: cell-based; details: 120 h; ni = did not inhibit fungal growth
Exserohilum turcicum = experiment: Anti-fungal activity against corn pathogens, microtiter spore assay (Table 2, race not given); assay type: cell-based; details: 120 h; ni = did not inhibit fungal growth
Monilinia fructigena = experiment: Mycelial growth in agar droplets coated with test protein; assay type: cell-based; details: protein concentration 20 μg/ml; 5 days; ni = did not inhibit
Cochliobolus sativus = experiment: as above; assay type: cell-based; details: protein concentration 20 μg/ml; 5 days; ni = did not inhibit
[4] = system: Pseudocercosporella herpotrichoides; experiment: as above; assay type: cell-based; details: 5 days
Pyricularia oryzae = assay type: cell-based; details: protein concentration 20 μg/ml; 5 days; ni = did not inhibit
Rhizoctonia solani = experiment: Mycelial growth in agar droplets coated with test protein; assay type: cell-based; details: 5 days
Fusarium culmorum = experiment: as above; assay type: cell-based; details: protein concentration 20 μg/ml; 5 days; ni = did not inhibit
Procedure: Concerning the results shown in Table 3, the assay of the AX and WIN N proteins in respect of the disclosed pathogens is performed as follows. Mycelium from the disclosed fungi are dispersed in a drop of molten agar which is then solidified. The solid agar droplets comprising the encapsulated mycelia are then coated with the test protein in the specified amount. Following incubation for 5 days under moist conditions the amount of mycelial growth is determined in comparison with controls, in which the agar droplets comprising the fungal roycelia are not coated with test protein. The results presented in […]

Leptosphaeria nodorum = experiment: as above; assay type: cell-based; details: protein concentration 20 μg/ml; 5 days; ni = did not inhibit
Botrytis cinerea = experiment: as above; assay type: cell-based; details: protein concentration 20 μg/ml; 5 days; ni = did not inhibit
C. beticola = experiment: Inhibition of fungal growth in 96 well micro-titre plates at 620 nm, spores of C. beticola; assay type: cell-based, Cercospora beticola; details: for 50% growth inhibition (I50) / IC50: C. beticola, after 72 hours incubation; for IC50: conversion of the ug/ml value, read-out: 50% growth inhibition (I50); for morphology of the fungus: FIG. 4, AX2 8 μg/ml, WIN 28 μg/ml; for rate of fungal hyphal extension: compared to controls
[5] = protein concentration 20 μg/ml, ni = did not inhibit

Row | Molecule | Minimum inhibitory concentration [1] | Protein concentration providing more than 50% growth inhibition [1] | Minimum inhibitory concentration (Diplodia maydis) | Protein concentration providing more than 50% growth inhibition (Diplodia maydis) | Minimum inhibitory concentration (Bipolaris maydis) | Protein concentration providing more than 50% growth inhibition (Bipolaris maydis) | Minimum inhibitory concentration [2] | Minimum inhibitory concentration [3] | Minimum inhibitory concentration (Fusarium graminearum) | Protein concentration providing more than 50% growth inhibition (Fusarium graminearum) | Minimum inhibitory concentration (Fusarium moniliforme) | Protein concentration providing more than 50% growth inhibition (Fusarium moniliforme) | Minimum inhibitory concentration (Gibberella zeae) | Protein concentration providing more than 50% growth inhibition (Gibberella zeae) | Protein concentration providing more than 50% growth inhibition (Exserohilum turcicum) | Growth inhibition (Monilinia fructigena) | Growth inhibition (Cochliobolus sativus) | Growth inhibition (Pyricularia oryzae) | Growth inhibition (Fusarium culmorum) | Growth inhibition (Leptosphaeria nodorum) | other results
1 | AX1: anti-microbial protein from sugar beet leaves infected with Cercospora beticola; residues 29-74 in SEQ ID No. 2, 46 amino acids (AICKKPSKFFKGACGRDADCEKACDQENWPGGVCVPFLRCECQRSC) | 50 µg/mL | 50 µg/mL | 11 µg/mL | 11 µg/mL | 20 µg/mL | 20 µg/mL | 11 µg/mL | 33 µg/mL | 33 µg/mL | 33 µg/mL | ni | ni | ni | ni | 33 µg/mL | 80% | 30% | ni | ni | ni | Growth inhibition ([4]; protein concentration 20 μg/ml): 30%; Growth inhibition (Rhizoctonia solani; [5]): ni; Growth inhibition (Botrytis cinerea): ni
2 | AX2: anti-microbial protein from sugar beet leaves infected with Cercospora beticola; residues 29-74 in SEQ ID No. 5, 46 amino acids (ATCRKPSMYFSGACFSDTNCQKACNREDWPNGKCLVGFKCECQRPC) | 50 µg/mL | 50 µg/mL | ni | ni | 30 µg/mL | 33 µg/mL | 98 µg/mL | ni | 33 µg/mL | 33 µg/mL | ni | ni | ni | ni | ni | 80% | 30% | 20% | 10% | 10% | 50% growth inhibition (I50) (C. beticola): 2 µg/mL; IC50 (C. beticola): ~0.5 µM; morphology of the fungus (C. beticola): markedly changed; growth in vitro of C. beticola (C. beticola; FIGS. 3A and 3B, result in words): greater than that of AX1; rate of fungal hyphal extension (C. beticola): profoundly slow; fungicidal activity against C. beticola (C. beticola; result in words): do not appear to exhibit fungicidal activity; Growth inhibition ([4]; protein concentration 20 μg/ml): 30%; Growth inhibition (Rhizoctonia solani; protein concentration 40 μg/ml): 10%; Growth inhibition (Botrytis cinerea): 10%
3 | B1 | ni | ni | 64 µg/mL | 64 µg/mL | ni | ni | ni | 193 µg/mL | ni | ni | ni | ni | ni | ni | 193 µg/mL | ni | ni | ni | ni | ni | 50% growth inhibition (I50) (C. beticola): 160 µg/mL; IC50 (C. beticola): ~11 µM; morphology of the fungus (C. beticola): markedly changed; rate of fungal hyphal extension (C. beticola): profoundly slow; fungicidal activity against C. beticola (C. beticola; result in words): do not appear to exhibit fungicidal activity; Growth inhibition ([4]; protein concentration 40 μg/ml): 30%; Growth inhibition (Rhizoctonia solani; [5]): ni; Growth inhibition (Botrytis cinerea): ni
